# Measured values taken from patent US8822206B2, “Device for high-throughput stimulation, immunostaining, and visualization of single cells” (The Johns Hopkins University, priority 2005, dated 2014).
# Test system: NIH3T3 mouse fibroblasts
# Assay: Cell stimulation and anti-p65 immunofluorescence staining in the microfluidic device
# Type: cell-based
# Settings: NIH3T3 mouse fibroblasts in device and on control slides; 10 ng/ml mouse TNF-alpha in media, 10 minutes stimulation
# Description: The device was fabricated as described in Example 1. The device was filled with sterile 0.1% gelatin with all of the valves open through an inlet port 11 to coat the parallel fluid channels to promote cell adhesion. Valves were primed with filtered, distilled water. Alternatively, filling may be done with the ports closed as trapped air can be pushed out of the gas-permeable PDMS with hydrostatic pressure. The device was flushed with […] the coating agent. Well-separated NIH3T3 mouse fibroblasts at a concentration of about 9 million cells per ml were introduced into the parallel fluid channels through an inlet port and the device was transferred to a standard 5% CO2, 37° C. cell culture incubator for 3-4 hours to allow the cells to adhere to the glass bottom of the parallel fluid channels.
# Using the multiplexer to control flow through the reaction units, a selection of valves were closed to allow for exposure of only a portion of the cells to a stimulant. A syringe containing a solution of 10 ng/ml of mouse TNF-alpha in media was attached to an inlet port, and cells were stimulated, or not, for 10 minutes. […] After secondary antibody staining and washing with DPBS, cells were overlaid with mounting media or other antifade agent to minimize photobleaching, and imaged using fluorescence microscopy. […]
substance,measurement,value
TNF-alpha,localization of p65 (anti-p65 immunofluorescence),localization of p65 to the nucleus
